Measured values: patent US20250360130A1, “METHODS OF TREATING INDOLENT SYSTEMIC MASTOCYTOSIS” (Telios Pharma Inc., priority 2024, published 2025)

How the values were obtained:
basophils = experiment: Comparison of BTK inhibitors by BAT (CD63, CD203c); type: cell-based, human; settings: concentration of 1 μM, 2 hours, blood from a healthy donor
Protocol: The BAT assay using the Flow Cast Basophil Activation Kit (Buhlmann Diagnostics; Catalog #B-CCR-STCON) was then conducted following manufacturer instructions by (1) stimulating the blood with anti-FcεR stimulation control in stimulation buffer with IL-3 and staining cells for CCR3 and CD63 for 15 minutes at 37° C., (2) lysing red blood cells and fixing cells with Lysing Reagent at room temperature for 10 minutes, (3) washing cells with Wash Buffer, and (4) acquiring data on a flow cytometer. Activated basophils were defined as CCR3+, low side scatter and CD63+. Percent of activated basophils was calculated as number of activated basophils over the total number of basophils. A four-parameter logistic regression was applied to determine the EC50 and EC90.
Blood samples were gently rocked at room temperature for 2 hours. […] Activated basophils were also defined as CCR3+, low side scatter and CD203c+.

ISM patients = settings: cited from earlier work
mast cells = experiment: Phosphorylation and degranulation of antigen-stimulated mast cells grown with chronic SCF (FIG. 21); type: cell-based; settings: 1 μM, antigen 15 minutes
Protocol: Histamine release, CD63 expression, CD203c expression, pBTK (Y223) levels, pP38 (T180/Y182) levels, pPLCg1 (S1248) levels, pERK (T202/Y204) levels, and pS6 (S235/236) levels are shown. Mast cells were grown with continuous (chronic) exposure to SCF and then stimulated with antigen (Ag) for 15 minutes, leading to phosphorylation of multiple kinases, including pBTK, […], pP38, pERK, and pS6 ribosome. This stimulation increases degranulation markers, including CD63, CD203c, and histamine release.

[1] = tested on: subjects with AdvSM and ISM; settings: cited from earlier work
humans = settings: cited from earlier work

CC#CC(=O)N1CCC[C@H]1c1nc(-c2ccc(C(=O)Nc3ccccn3)cc2)c2c(N)nccn12 [acalabrutinib, Acalabrutinib ((S)-4-(8-amino-3-(1-(but-2-ynoyl)pyrrolidin-2-yl)imidazo[1,5-a]pyrazin-1-yl)-N-(pyridin-2-yl)benzamide), reference compound]
basophil activation (CD63+, CD203c+) (basophils): no effect on basophil activation

Cn1cc(-c2cc3c(N4CCN(c5ncc([C@@](C)(N)c6ccc(F)cc6)cn5)CC4)ncnn3c2)cn1 [avapritinib]
reduction of total symptom score compared to the placebo (ISM patients; 25 mg QD, week 24, ISM patients): 5.7 points
ISM patients with dose interruptions due to adverse reactions (ISM patients; 25 mg QD): 5%
treated subjects who failed to achieve a mean symptom score reduction of 30% (ISM patients; ISM patients, first 6 months of treatment): approximately half
subjects who achieved a 50% symptom score reduction (ISM patients; ISM patients, within the first 6 months of treatment): about a third
activation (phosphorylation and degranulation) of mast cells (mast cells): only partially inhibits activation

Cc1nc(Nc2ncc(C(=O)Nc3c(C)cccc3Cl)s2)cc(N2CCN(CCO)CC2)n1 [dasatinib]
subjects who discontinued treatment due to toxicity ([1]; 15 subjects with AdvSM and 18 subjects with ISM, overall): 34%
pleural effusion, grade 3 adverse event, patients overall ([1]; overall study population): 10%

C=CC(=O)N1CCC[C@@H](n2nc(-c3ccc(Oc4ccccc4)cc3)c3c(N)ncnc32)C1 [ibrutinib, Ibrutinib (1-[(3R)-3-[4-amino-3-(4-phenoxyphenyl)pyrazolo[3,4-d]pyrimidin-1-yl]piperidin-1-yl]prop-2-en-1-one)]
adverse events associated with administration (humans): heightened risk of atrial fibrillation, hypertension, major bleeding events, and cytopenias
